Measured values reported in US20090186838A1, “Amphotericin Derivatives” (Eidgenössische Technische Hochschule Zürich, priority 2006, published 2009).
Values after ≈ are worked out from the molar mass of the structure shown. Values joined by “and” are separate entries in the source; they are usually repeats but may differ in a detail not shown here. Equal values may be shown once. Read-outs that look alike come from different tables or passages of the source.

What was measured:
[1] = tested on: Saccharomyces cerevisiae wild type BY4741; assay: MIC determination in Saccharomyces cerevisiae wild type BY4741; format: cell-based; settings: for MIC: read-out: MIC
Description: (§1) In Vitro Antifungal Activity. MIC values for various strains were determined in accordance with the standard protocol from the National Committee of Clinical Laboratory Standards but using YEPD liquid medium instead of RPMI-1640 medium (National Committee of Clinical Laboratory Standards (Reference Method for Broth Dilution Antifungal Susceptibility Testing of Yeast, M27-A2, Approved Standard-Second Edition, Volume 22, Number 15, 1995). AmB was used as a reference. The strains were cultivated overnight in 5 mL YEPD liquid medium at 30 to 37° C. (30° C. for the strain BY4741; 37° C. for the strain DSY1764) with constant shaking. The saturated cultures were diluted to an ODB600 of 0.1 (3×10P^7 cells/mL). Using 24 wells plate, each well was prepared by adding 1% (12 μL) of DMSO solution of the tested polyene macrolide with 1% (12 μL) yeast cells solution and completed with YEPD (1.176 mL). The plates were sealed with Parafilm and then incubated for 18 to 36 hours at 30 to 37° C. (18 hours at 30° C. for the strain BY4741; 36 hours at 37° C. for the strain DSY1764). The optical density was read at 600 nm using 1.5 mL cuvettes. The MIC value was defined as the drug concentration needed to inhibit growth, less than 5% compared to a drug-free culture.
MIC values of various polyene macrolides of the invention in Saccharomyces cerevisiae wild type BY4741, a derivative of S288C, (with AmB as a reference) were determined as described hereinabove.
Based on the remarkable performance observed with the Diamine-AmB conjugate similar modifications of the aminosugar moiety were made on other polyene macrolides, such as for example Nystatin (1b) and Pimaricin (1c). The antifungal activity of these nystatin and pimaricin conjugates bearing two aminopropyl side chains was measured using Saccharomyces cerevisiae wild type BY4741.

DSY-562 C. glabrata CI = assay: MIC determination in Candida strain DSY-562; format: cell-based; settings: Nakaseomyces glabratus
Description: as §1
(§2) MIC values of the polyene macrolides 3, 9 and 10 (Diamine-AmB and its ester and diamide derivative, respectively) in various Candida strains including an AmB-resistant strain C. albicans (DSY1764, with the genotype erg3AΔ::hisG/erg3BΔ::hisG erg11Δ::hisG/erg11Δ::hisG-URA3-hisG) were determined.

DSY-565 C. glabrata CI = assay: MIC determination in Candida strain DSY-565; format: cell-based; settings: Nakaseomyces glabratus
Description: as §1, §2

CAF2-1 C. albican wt = assay: MIC determination in Candida strain CAF2-1; format: cell-based, Candida albicans; settings: Candida albicans
Description: as §1, §2

[2] = tested on: DSY-654 C. albican mutant cdr1/2; assay: MIC determination in Candida strain DSY-654; format: cell-based, Candida albicans; settings: Candida albicans
Description: as §1, §2

[3] = tested on: DSY-1751 C. albican mutant erg3; assay: MIC determination in Candida strain DSY-1751; format: cell-based, Candida albicans; settings: Candida albicans
Description: as §1, §2

[4] = tested on: DSY-1764 C. albican mutant erg3/11 (AmB-resistant strain); assay: MIC determination in AmB-resistant Candida strain DSY-1764; format: cell-based, Candida albicans; settings: Candida albicans, 36 h
Description: as §1, §2

DSY-294 C. albican CI = assay: MIC determination in Candida strain DSY-294; format: cell-based, Candida albicans; settings: Candida albicans
Description: as §1, §2

human erythrocytes = assay: Hemolytic assay (EH50); format: cell-based
Description: Hemolytic Assay. The hemotoxicity of the polyene macrolide derivatives of the invention was determined by measuring the toxicity towards human erythrocytes (EH50 value) using an established assay (Kinsky, S. C. et al., Biochem. Biophys. Res. Comm. 1962, 9, 503). Human blood, anticoagulated with citrate or EDTA, was centrifuged (2000×g) at 4° C. for 10 minutes. The pellets were washed three times with PBS buffer (pH 7.2 with 2 g/L glucose) and then diluted to a concentration of 4% (4×10^8 cells/mL). All experiments were done in triplo and the total volume for the hemolysis tubes was 1.4 ml. The solutions were prepared by adding 1% (14 μL) of DMSO solution of the tested compound with […] of PBS buffer and completed with 750 μL of 4% erythrocytes. After one hour incubation at 37° C., the samples were centrifuged (1500×g) at 4° C. for 5 min and the absorbance of the supernatant was measured at 560 nm. The concentration that led to 50% hemolysis (EH50) was intrapolated graphically. The value for the 100% hemolysis was obtained by the treatment with 100 μM of AmB.
The toxicity of AmB (1a) and the polyene macrolides 3, 9 and 10 towards human erythrocytes was examined using the above described hemolysis assay (Table 3).

[5] = K+ efflux assay, ergosterol containing vesicles; settings: lower concentration, 0.1 μM (FIG. 3a,c,e,g)
Description: (§3) FIG. 3. K^+ efflux from vesicles (LUVET100) prepared from […] (POPC) (solid line) or POPC with sterols (dotted line) for ergosterol and (broken line) for cholesterol caused by AmB (1a) (FIGS. 3a,b) and AmB diamine 3 (FIG. 3c,d), AmB diamine ester 9 (FIG. 3e,f) and AmB diamine amide 10 (FIG. 3g,h), added in DMSO to a suspension of vesicles to give final concentrations of 0.1 μM (FIG. 3a,c,e,g) and 1.0 μM (FIG. 3b,d,f,h).
K+ efflux assay. The K^+ efflux measurements were made following a previously described procedure (Zumbuehl, A. et al., Angew. Chem. Int. Ed. 2004, 43, 5181-5185; Zumbuehl, A. et al., Org. Lett. 2004, 6, 3683-3686). The appropriate liposome suspensions were prepared using POPC, cholesterol and ergosterol. Then the liposomes were sized by extrusion through two 400 nm, 200 nm, and finally 100 nm pore size membrane. The resultant “100 nm” unilamellar liposomes were dialyzed against 600 mL of 150 mM NaCl, 5 mM HEPES (pH 7.4) buffer. After, the suspension was diluted with 150 mM NaCl, 5 mM HEPES (pH 7.4) buffer to 1 mM overall lipid concentration (phospholipids+sterols). For each efflux measurement 10 mL of this liposome suspension was placed in a small beaker. Potentiometric measurements were performed with a 16-channel electrode monitor in magnetically stirred solutions at ambient temperature. The reference electrode was a Metrohm double junction Ag/AgCl reference electrode with 3 M KCl as reference electrolyte and 1 M LiOAc as bridge electrolyte. […] The resulting reading (taken after 0.5 h) was used to quantify the 100% K+-release.
As described hereinbefore differential interaction between ergosterol found in fungal membranes and cholesterol in mammalian cells is considered the basis for the selectivity of AmB (1a) as an antifungal agent. The preferential stabilization of ion channel formation in the membrane by ergosterol ultimately results in electrolyte leakage which can be conveniently measured by K^+ efflux from sterol containing vesicles. […]

[6] = K+ efflux assay, cholesterol containing vesicles; settings: lower concentration, 0.1 μM (FIG. 3a,c,e,g)
Description: as §3
K+ efflux assay. The K^+ efflux measurements were made following a previously described procedure (Zumbuehl, A. et al., Angew. Chem. Int. Ed. 2004, 43, 5181-5185; Zumbuehl, A. et al., Org. Lett. 2004, 6, 3683-3686). The appropriate liposome suspensions were prepared using POPC, cholesterol and ergosterol. Then the liposomes were sized by extrusion through two 400 nm, 200 nm, and finally 100 nm pore size membrane. The resultant “100 nm” unilamellar liposomes were dialyzed against 600 mL of 150 mM NaCl, 5 mM HEPES (pH 7.4) buffer. After, the suspension was diluted with 150 mM NaCl, 5 mM HEPES (pH 7.4) buffer to 1 mM overall lipid concentration (phospholipids+sterols). For each efflux measurement 10 mL of this liposome suspension was placed in a small beaker. Potentiometric measurements were performed with a 16-channel electrode monitor in magnetically stirred solutions at ambient temperature. The reference electrode was a Metrohm double junction Ag/AgCl reference electrode with 3 M KCl as reference electrolyte and 1 M LiOAc as bridge electrolyte. After recording the amphotericin-induced potassium efflux, liposomes were lysed by adding sodium cholate (172 mg). The resulting reading (taken after 0.5 h) was used to quantify the 100% K+-release.
As described hereinbefore differential interaction between ergosterol found in fungal membranes and cholesterol in mammalian cells is considered the basis for the selectivity of AmB (1a) as an antifungal agent. The preferential stabilization of ion channel formation in the membrane by ergosterol ultimately results in electrolyte leakage which can be conveniently measured by K^+ efflux from sterol containing vesicles. To assess the interaction of the polyene macrolide derivatives of the invention with sterols, derivatives 3, 9 and 10 were examined in their ability to lead to K^+ efflux from large unilamellar vesicles (LUV) prepared from POPC (1-palmitoyl-2-oleoyl-sn-glycero-3-phosphocholine) admixed with sterols, mimicking conditions in natural biomembranes (FIG. 3). At high concentration (FIG. 3b,d,f,h), all compounds rapidly induce complete K^+ efflux from vesicles containing ergosterol (dotted line). […] This differentiation between ergosterol and cholesterol is consistent with the observation of reduced hemotoxicity of 3, 9 and 10.

Solubility assay = format: physicochemical; settings: PBS buffer, pH 7.2, aqueous buffer, kinetic from dmso stock, DMSO stock added to PBS buffer solution pH 7.2; precipitation point by light scattering at 600 nm; read-out: Solubility in water
Description: Solubility assay. The solubility assay was performed according to Lipinski, C. A. et al Advances Drug Delivery Reviews 2001, 46, 3-26. Typically, a compound of the invention was dissolved in DMSO at a concentration of 10 μg/μl. The so obtained solution was added in […] at 1 min intervals to 2.5 ml PBS buffer solution pH 7.2. These additions correspond to solubility increments of 5 μg/ml to a top value of 65 μg/ml. A total of 14 additions were made and each time increased UV absorbance from light scattering was measured at 600 nm. The precipitation point was calculated from a bilinear curve fit to the Absorbance (y axis) versus μl of DMSO (x axis) plot.
The solubility of the polyene macrolides of the invention in water was tested following the above described protocol. Clearly, all conjugates were more soluble in water then AmB.

[7] = Saccharomyces cerevisiae wild type BY4741, YEPD liquid medium, 18 hours at 30° C.

C[C@@H]1[C@H](O)[C@@H](C)/C=C/C=C/C=C/C=C/C=C/C=C/C=C/[C@H](O[C@@H]2O[C@H](C)[C@@H](O)[C@H](N(CCCN)CCCN)[C@@H]2O)CC2O[C@](O)(C[C@@H](O)C[C@@H](O)[C@H](O)CC[C@@H](O)C[C@@H](O)CC(=O)O[C@H]1C)C[C@H](O)[C@H]2C(=O)N1CCN(C)CC1 [compound 12, 16-(N′-(1-Methylpiperazinyl)carboxamide)-N,N-di-(3-aminopropyl)-AmB]
MIC [1, 7]: 0.2 µM (≈ 0.224 µg/mL) | MIC (DSY-562 C. glabrata CI): 0.3 µM (≈ 0.336 µg/mL) | MIC (DSY-565 C. glabrata CI): 0.2 µM (≈ 0.224 µg/mL) | MIC (CAF2-1 C. albican wt): 0.3 µM (≈ 0.336 µg/mL) | MIC [2]: 0.4 µM (≈ 0.448 µg/mL) | MIC [3]: 0.4 µM (≈ 0.448 µg/mL) | MIC [4]: 1 µM (≈ 1.12 µg/mL)

C[C@@H]1[C@H](O)[C@@H](C)/C=C/C=C/C=C/C=C/C=C/C=C/C=C/[C@H](O[C@@H]2O[C@H](C)[C@@H](O)[C@H](N(CCCN)CCCN)[C@@H]2O)C[C@@H]2O[C@](O)(C[C@@H](O)C[C@@H](O)[C@H](O)CC[C@@H](O)C[C@@H](O)CC(=O)O[C@H]1C)C[C@H](O)[C@H]2C(=O)O [compound 3, N,N-Di-(3-aminopropyl)-AmB]
MIC [1, 7]: 0.02 µM and 0.020 µM | times more active than AmB (MIC) ([1]; Saccharomyces cerevisiae wild type BY4741, relative to AmB): 15 times | MIC ([1]; Saccharomyces cerevisiae, Table 3, strain not given, values as in Table 1 (S. cerevisiae BY4741)): 0.02 µM (≈ 0.0208 µg/mL) | MIC (DSY-294 C. albican CI): 0.2 µM (≈ 0.208 µg/mL) | MIC (DSY-562 C. glabrata CI): 0.2 µM (≈ 0.208 µg/mL) | MIC (DSY-565 C. glabrata CI): 0.2 µM (≈ 0.208 µg/mL) | MIC (CAF2-1 C. albican wt): 0.1 µM (≈ 0.104 µg/mL) | MIC [4]: 1 µM (≈ 1.04 µg/mL) | EH50 (human erythrocytes; concentration that led to 50% hemolysis of human erythrocytes, one hour at 37° C.): 10 µM | times less toxic than AmB (EH50) (human erythrocytes; human erythrocytes, relative to AmB (1a)): 2.5 times | K+ efflux with ergosterol containing vesicles [5]: observed exclusively with the ergosterol containing vesicles | K+ efflux with cholesterol containing vesicles [6]: indistinguishable from background | solubility (Solubility assay): 12 µg/mL (≈ 11.6 µM)
